Assay results as given in ChEMBL document CHEMBL5712891, “Inhibition of BET bromodomain-dependent XIAP and FLIP expression sensitizes KRAS-mutated NSCLC to pro-apoptotic agents” (Cell Death Dis, 2016).
Calls of active or inactive are those of the source. No cut-off for these calls is given here.

Tests used:
A549 [1] = test: Induction of apoptosis in human A549 cells assessed as viable cells at 2.5 uM for 24 hrs by annexin V-PI staining based flow cytometric analysis (reference value: 97.7%); assay type: functional; settings: read-out: Activity
NCI-H1373 [2] = test: Induction of apoptosis in human NCI-H1373 cells assessed as necrotic cells at 2.5 uM for 24 hrs by annexin V-PI staining based flow cytometric analysis (reference value: 4.4%); assay type: functional
NCI-H1373 [3] = test: Induction of apoptosis in human NCI-H1373 cells assessed as viable cells at 2.5 uM for 24 hrs by annexin V-PI staining based flow cytometric analysis (reference value: 71.6%); assay type: functional; settings: read-out: Activity
NCI-H460 [4] = test: Induction of apoptosis in human NCI-H460 cells assessed as viable cells at 0.5 uM for 24 hrs by annexin V-PI staining based flow cytometric analysis (reference value: 92.8%); assay type: functional; settings: read-out: Activity
NCI-H1373 [5] = test: Induction of apoptosis in human NCI-H1373 cells assessed as early apoptotic cells at 0.5 uM for 24 hrs by annexin V-PI staining based flow cytometric analysis (reference value: 1.7%); assay type: functional
DV-90 [6] = test: Induction of cell cycle arrest in human DV-90 cells assessed as accumulation of cells at G2/M phase at 0.5 uM for 24 hrs by Click-iT EdU Alexa Fluor 647 flow cytometric assay kit analysis (reference value: 21%); assay type: functional
DV-90 [7] = test: Induction of cell cycle arrest in human DV-90 cells assessed as accumulation of cells at G0/G1 phase at 0.5 uM for 24 hrs by Click-iT EdU Alexa Fluor 647 flow cytometric assay kit analysis (reference value: 47%); assay type: functional
NCI-H1373 [8] = test: Induction of apoptosis in human NCI-H1373 cells assessed as viable cells at 0.5 uM for 24 hrs by annexin V-PI staining based flow cytometric analysis (reference value: 71.6%); assay type: functional; settings: read-out: Activity
DV-90 [9] = test: Induction of apoptosis in human DV-90 cells assessed as viable cells at 2.5 uM for 48 hrs by annexin V-PI staining based flow cytometric analysis (reference value: 81.9%); settings: DV-90, 48 h
DV-90 [10] = test: Induction of cell cycle arrest in human DV-90 cells assessed as accumulation of cells at G0/G1 phase at 0.5 uM for 24 hrs by Click-iT EdU Alexa Fluor 647 flow cytometric assay kit analysis (reference value: 45%); assay type: functional
DV-90 [11] = test: Induction of cell cycle arrest in human DV-90 cells assessed as accumulation of cells at G2/M phase at 0.25 uM for 24 hrs by Click-iT EdU Alexa Fluor 647 flow cytometric assay kit analysis (reference value: 25%); assay type: functional
NCI-H460 [12] = test: Induction of cell cycle arrest in human NCI-H460 cells assessed as accumulation of cells at G0/G1 phase at 0.25 uM for 24 hrs by Click-iT EdU Alexa Fluor 647 flow cytometric assay kit analysis (reference value: 45%); assay type: functional
DV-90 [13] = test: Induction of cell cycle arrest in human DV-90 cells assessed as accumulation of cells at G0/G1 phase at 0.25 uM for 24 hrs by Click-iT EdU Alexa Fluor 647 flow cytometric assay kit analysis (reference value: 44%); assay type: functional
DV-90 [14] = test: Downregulation of XIAP protein expression level in human DV-90 cells at 1 uM for 24 hrs by […] analysis; assay type: functional, cell-based
NCI-H2030 [15] = test: Downregulation of c-MYC mRNA expression level in human NCI-H2030 cells at 0.1 to 1 uM for 24 hrs by qRT-PCR analysis; assay type: functional, cell-based; settings: dose 0.1-1 µM
NCI-H1373 [16] = test: Downregulation of XIAP mRNA expression level in human NCI-H1373 cells at 0.1 to 1 uM for 24 hrs by qRT-PCR analysis; assay type: functional, cell-based; settings: dose 0.1-1 µM
NCI-H2030 [17] = test: Downregulation of XIAP mRNA expression level in human NCI-H2030 cells at 0.1 to 1 uM for 24 hrs by qRT-PCR analysis; assay type: functional, cell-based; settings: dose 0.1-1 µM
[18] = Toxicity in SCID mouse xenografted with human A549 cells assessed as body weight loss administered at 80 mg/kg, ip for 7 days along with cisplatin for 5 days follwed by compound treatment for 14 days relative to control; assay type: organism-based; settings: in vivo, 672 h, time 28 day
A549 [19] = test: Induction of cell cycle arrest in human A549 cells assessed as accumulation of cells at S phase at 1 uM for 24 hrs by DAPI staining analysis (reference value: 36%); assay type: functional
DV-90 [20] = test: Induction of cell cycle arrest in human DV-90 cells assessed as accumulation of cells at G0/G1 phase at 0.1 uM for 24 hrs by Click-iT EdU Alexa Fluor 647 flow cytometric assay kit analysis (reference value: 44%); assay type: functional
A549 [21] = test: Induction of cell cycle arrest in human A549 cells assessed as accumulation of cells at G0/G1 phase at 0.25 uM for 24 hrs by Click-iT EdU Alexa Fluor 647 flow cytometric assay kit analysis (reference value: 61%); assay type: functional
A549 [22] = test: Antitumor activity against human A549 cells assessed as test to control tumor ratio at 80 mg/kg, ip for 28 days relative to control; assay type: functional; settings: time 28 day
NCI-H1373 [23] = test: Induction of apoptosis in human NCI-H1373 cells assessed as late apoptotic cells at 2.5 uM for 24 hrs by annexin V-PI staining based flow cytometric analysis (reference value: 16.2%); assay type: functional
LCLC-97TM1 = test: Downregulation of FLIP mRNA expression level in human LCLC-97TM1 cells at 0.1 to 1 uM for 24 hrs by qRT-PCR analysis; assay type: functional, cell-based; settings: dose 0.1-1 µM
A549 [24] = test: Antiproliferative activity against human A549 cells at 500 to 2500 nM in presence of TNF by cell titre glo assay; assay type: functional, cell-based; settings: dose 500-2500 nM
NCI-H1373 [25] = test: Induction of cell cycle arrest in human NCI-H1373 cells assessed as accumulation of cells at S phase at 0.5 uM for 24 hrs by Click-iT EdU Alexa Fluor 647 flow cytometric assay kit analysis (reference value: 45%); assay type: functional
DV-90 [26] = test: Induction of apoptosis in human DV-90 cells assessed as early apoptotic cells at 0.5 uM for 24 hrs by annexin V-PI staining based flow cytometric analysis (reference value: 1.7%); assay type: functional
NCI-H2347 = test: Downregulation of XIAP protein expression level in human NCI-H2347 cells at 1 uM for 24 hrs by […] analysis; assay type: functional, cell-based
NCI-H1792 = test: Downregulation of XIAP protein expression level in human NCI-H1792 cells at 1 uM for 24 hrs by […] analysis; assay type: functional, cell-based
[27] = Toxicity in SCID mouse xenografted with human A549 cells assessed as body weight loss administered at 80 mg/kg, ip for 28 days relative to control; assay type: organism-based; settings: in vivo, 672 h, time 28 day
NCI-H1373 [28] = test: Induction of TRAIL dependent apoptosis in human NCI-H1373 cells assessed as necrotic cells at 1 uM by annexin V-PI staining based flow cytometric analysis (reference value: 3.6%); assay type: functional
NCI-H1373 [29] = test: Induction of apoptosis in human NCI-H1373 cells assessed as necrotic cells at 2.5 uM for 24 hrs by annexin V-PI staining based flow cytometric analysis (reference value: 5.5%); assay type: functional
NCI-H460 [30] = test: Induction of apoptosis in human NCI-H460 cells assessed as late apoptotic cells at 2.5 uM for 24 hrs by annexin V-PI staining based flow cytometric analysis (reference value: 3.0%); assay type: functional

Work on `Cc1sc2c(c1C)C(c1ccc(Cl)cc1)=N[C@@H](CC(=O)Nc1ccc(O)cc1)c1nnc(C)n1-2` [BIRABRESIB] yielded a viability at 2.5 µM (A549 [1]) of 97.3%, an Activity (NCI-H1373 [2]) of 21.4% and a viability at 2.5 µM (NCI-H1373 [3]) of 56.2%. The viability at 0.5 µM (NCI-H460 [4]) was 90.6%, the Activity (NCI-H1373 [5]) was 2.6% and the Activity (DV-90 [6]) was 25%. It also gave an Activity (DV-90 [7]) of 56%, a viability at 0.5 µM (NCI-H1373 [8]) of 67.4% and a viability at 2.5 µM (DV-90 [9]) of 49.4%.

In the case of `CCNC(=O)C[C@@H]1N=C(c2ccc(Cl)cc2)c2cc(OC)ccc2-n2c(C)nnc21` [MOLIBRESIB], the Activity (DV-90 [10]) is reported as 47%, the Activity (DV-90 [11]) is reported as 31% and the Activity (NCI-H460 [12]) is reported as 43%.

With `Cc1sc2c(c1C)C(c1ccc(Cl)cc1)=N[C@@H](CC(=O)OC(C)(C)C)c1nnc(C)n1-2` the Activity (DV-90 [13]) was 45%, the Activity (DV-90 [14]) was “Active” and the Activity (NCI-H2030 [15]) was “Active”. For the same compound, the Activity (NCI-H1373 [16]) was “Active”, the Activity (NCI-H2030 [17]) was “Active” and the T/C [18] was 10%. The Activity (A549 [19]) was 32%, the Activity (DV-90 [20]) was 41% and the Activity (A549 [21]) was 63%. The T/C (A549 [22]) was 60%, the Activity (NCI-H1373 [23]) was 21.9% and the Activity (LCLC-97TM1) was “Active”. The Activity (A549 [24]) was “Active”, the Activity (NCI-H1373 [25]) was 12% and the Activity (DV-90 [26]) was 2.6%. For the same compound, the Activity (NCI-H2347) was “Active”, the Activity (NCI-H1792) was “Active” and the Activity [27] was 7%. For the same compound, the Activity (NCI-H1373 [28]) was 19.1%, the Activity (NCI-H1373 [29]) was 17.2% and the Activity (NCI-H460 [30]) was 5.5%.
